Assay results from PubChem BioAssay (NCI).
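Where inhibition never reached the appropriate level, the endpoint shown equals the highest concentration tested. Otherwise, values were interpolated linearly from a five-concentration, 48-hour dose response in 96-well plates. The concentration for 50% growth inhibition is given as GI50. TGI denotes the concentration required for complete inhibition of growth.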

What was measured:
Assay in all cases: NCI tumour cell line growth inhibition, 48 h
[1] = system: ACHN renal
[2] = system: U251 CNS
[3] = system: HCT-116 colon
[4] = system: T-47D breast
[5] = system: COLO 205 colon
[6] = system: SR leukemia
[7] = system: NCI/ADR-RES ovarian
[8] = system: NCI-H460 lung
[9] = system: IGROV1 ovarian
[10] = system: UACC-62 melanoma
[11] = system: MDA-MB-231 breast
[12] = system: NCI-H226 lung
[13] = system: TK-10 renal
[14] = system: SK-MEL-2 melanoma
[15] = system: LOX IMVI melanoma
[16] = system: CAKI-1 renal
[17] = system: SN12C renal
[18] = system: MOLT-4 leukemia
[19] = system: OVCAR-8 ovarian
[20] = system: A498 renal
[21] = system: MALME-3M melanoma
[22] = system: SK-MEL-28 melanoma
[23] = system: RXF 393 renal
[24] = system: HS 578T breast
[25] = system: 786-0 renal
[26] = system: SNB-75 CNS
[27] = system: HOP-92 NSCLC
[28] = system: OVCAR-4 ovarian
[29] = system: SW-620 colon
[30] = system: CCRF-CEM leukemia

CN(C(=O)c1ccc(C(C)(C)C)cc1)c1sc2c(c1C#N)CCC(=O)C2
TGI [1]: 10.5 µM | GI50 [2]: 1.82 µM | TGI [2]: 3.9 µM | GI50 [3]: 2.08 µM | TGI [3]: 4.91 µM | GI50 [4]: 1.83 µM | TGI [4]: 4.07 µM | GI50 [5]: 19.6 µM | TGI [5]: 37.2 µM | GI50 [6]: 2.28 µM | TGI [6]: 7.1 µM | GI50 [7]: 2.68 µM | TGI [7]: 7.44 µM | GI50 [8]: 13.1 µM | TGI [8]: 27.5 µM | GI50 [9]: 11.7 µM | TGI [9]: 25 µM | GI50 [10]: 2.34 µM | TGI [10]: 6.4 µM | GI50 [11]: 2.84 µM | TGI [11]: 8.49 µM | GI50 [12]: 14.1 µM | TGI [12]: 38.1 µM | GI50 [13]: 10.4 µM | TGI [13]: 23 µM | GI50 [14]: 14.5 µM | TGI [14]: 28.7 µM | GI50 [15]: 2.11 µM | TGI [15]: 5.2 µM | GI50 [16]: 3.8 µM | TGI [16]: 17.6 µM | GI50 [17]: 14 µM | TGI [17]: 27.2 µM | GI50 [18]: 4.21 µM | TGI [18]: 23.5 µM | GI50 [19]: 9.16 µM | TGI [19]: 39.6 µM | GI50 [20]: 15.4 µM | TGI [20]: 29.4 µM | GI50 [21]: 12.6 µM | TGI [21]: 26.2 µM | GI50 [22]: 11.2 µM | TGI [22]: 23.9 µM | GI50 [23]: 1.96 µM | TGI [23]: 4.53 µM | GI50 [24]: 3.89 µM | TGI [24]: 28.1 µM | GI50 [25]: 3.72 µM | TGI [25]: 13.3 µM | GI50 [26]: 6.94 µM | TGI [26]: 24.4 µM | GI50 [27]: 3.51 µM | TGI [27]: 15.7 µM | GI50 [28]: 2.64 µM | TGI [28]: 8.45 µM | GI50 [29]: 2.06 µM | TGI [29]: 4.17 µM | GI50 [30]: 3.34 µM | TGI [30]: 10.4 µM
